Consider five molecules from patent publication US8986689B2, “Compositions and methods for brain delivery of analgesic peptides” (National Research Council of Canada, priority 2010, dated 2015).

One series has as its system male Wistar rats. Description: Paw flick assay (Hargreaves method, CFA chronic inflammatory pain). It counts as in vivo, rat. Conditions: for Analgesic effect after intravenous injection: tail vein, three injections at 0, 1 and 2 h, Dalargin-cys 0.34 mg/kg, FC5 and EG2-Dalargin 7 mg/kg. Here is the method: (§1) Chronic inflammatory pain was induced in 4-6 week old male Wistar rats, by a intra-plantar (i.pl.) injection (100 μl with a 30-gauge needle) of complete Freund's adjuvant in sterile water in a ratio of 1:1 in the right hind paw under brief isoflurane anesthesia (3%). Three days after CFA injection the putative antinociceptive effect of different compounds was quantified by measuring latencies of withdrawal of both hind limb paws (ipsilateral and contralateral to CFA injection) in response to radiant heat using digitalized plantar Analgesia Meter for paw stimulation (IITC Model #336TG Life Science, Inc.). A rapid paw withdrawal on the side of CFA injection (compared to the contralateral non-injected paw) was indicative of inflammatory pain. During the training period (before experiments), the light-intensity lamp was adjusted to elicit baseline paw withdrawal latencies between 17 to 20 s (in rats). […] Results were analyzed as temporal courses of paw withdrawal latency (sec) versus time (min or hrs) and expressed as % of maximum possible effect (% MPE) as described in Example 5. A subcutaneous injection of morphine 10 mg/kg served as a positive control.
For intra-cerebroventricular injections in rats, a longitudinal incision was made in the scalp to identify the bregma; then animals received a unilateral 5 μl intra-cerebroventricular injection of either FC5-Dalargin or Dalargin alone approximately 0.8 mm anterioposterior (AP) level of bregma, 1.5 mm with respect to the midline and 3.5 mm ventral from the skull surface. Injections were made using a Hamilton syringe equipped with a 25-gauge needle. Injection depth was controlled by a plug on the needle to prevent more than 3.5 mm penetration beyond the skull surface.
In contrast, FC5-Dalargin induced cumulative analgesia after each i.v. dosing, reaching 100% MPE 45 min-1 hour after the third injection and gradually ‘washing-out’ over a subsequent three hours (FIG. 12, closed triangles), similar to what was observed after intra-cerebroventricular injections of Dalargin-cys and FC5-Dalargin (FIGS. 10 and 11). If Fc5-Dalargin injection was given 4th time at 3 h (FIG. 12, open polygons), the ‘wash-out’ (i.e., disappearance of analgesic effect) was somewhat extended. […] When Dalargin is functionalized with the blood-brain barrier ‘carrier’ single domain antibody, FC5, Dalargin becomes efficacious in inducing analgesia in chronic pain because FC5 enables its delivery across the blood brain barrier to the sites of its pharmacological action, central opioid receptors.
as §1, with “5-7 weeks” for “4-6 week”, “5.” for “5. A subcutaneous injection of morphine 10 mg/kg served as a positive control.”
Rats received 5 μl intra-cerebroventricular injections of NPY (1 μg) as described in Example 6.
NPY was then injected intravenously in the tail vein in two injections, each containing 2.02 mg/kg of NPY, 1 h apart from each other as described in Example 6. […]

The next series concerns male CD-1 mice. Nature of the series: Tail flick assay (acute pain). In kind it is in vivo, mouse. The note with it: for Analgesic effect after intra-cerebroventricular injection: 15 min and 30 min after injection. (Thermal pain tests record how soon the animal reacts.)
The target in another series is opioid receptors (Rattus norvegicus, UniProt P33535). Description: Opioid receptor binding competition assay against 3H-DAMGO in isolated rat brain membranes. The note with it: 30 nM 3H-DAMGO, capillary-depleted rat brain membranes.
In series [1] the test system is Immortalized Adult Rat brain endothelial cells (ARBEC). Nature of the series: Transport across in vitro blood brain barrier model. Conditions: Cy5.5-labelled, 10 μg/ml added to apical chamber, ARBEC monolayer.
Experimental: FC5 and FC5-Dalargin were labelled by covalent conjugation to Cy5.5 N-hydroxysuccinimide (NHS) ester using methods recommended by the manufacturer (GE Healthcare). Cy5.5 NHS was bound to FC5 through a thioether covalent bond.
Immortalized Adult Rat brain endothelial cells (ARBEC) were used as the in vitro blood brain barrier model. ARBEC (80,000 cells/membrane) were seeded on a 0.5% gelatine-coated Falcon tissue culture inserts (pore size-1 μm; surface area 0.83 cm^2) in 1 ml of growth medium. The bottom chamber of the insert assembly contained 2 ml of growth medium supplemented with the fetal human astrocyte-conditioned medium in a 1:1 (v/v) ratio.
Transport studies were performed 7 days post-seeding. Filter inserts were rinsed with transport buffer (PBS containing 5 mM glucose, 5 mM MgCl2, 10 mM HEPES, 0.05% BSA, pH 7.4) and allowed to equilibrate at 37° C. for 30 minutes. Experiments were initiated by adding 10 μg/ml Cy5.5-labelled FC5-Dalargin or Cy5.5-labelled FC5 to the apical chamber. Aliquots (100 μl) were collected from the opposite chamber at various time intervals (5, 15, 30, 60, 120 minutes) and replaced with fresh buffer. The amount of FC5-Dalargin transported across HCEC monolayers was determined by fluorescence in a fluorescence plate reader.
Where [2] appears, read: 0.86 mg/kg of Dalargin, intra-carotid, 30 min after injection.
Where [3] appears, read: 1.72 mg/kg of Dalargin, intra-carotid, 30 min after injection.

Non-standard residues stand in square brackets, D forms with d. No end group written: not given here.

Chain of opioid receptors (P33535 whole entry): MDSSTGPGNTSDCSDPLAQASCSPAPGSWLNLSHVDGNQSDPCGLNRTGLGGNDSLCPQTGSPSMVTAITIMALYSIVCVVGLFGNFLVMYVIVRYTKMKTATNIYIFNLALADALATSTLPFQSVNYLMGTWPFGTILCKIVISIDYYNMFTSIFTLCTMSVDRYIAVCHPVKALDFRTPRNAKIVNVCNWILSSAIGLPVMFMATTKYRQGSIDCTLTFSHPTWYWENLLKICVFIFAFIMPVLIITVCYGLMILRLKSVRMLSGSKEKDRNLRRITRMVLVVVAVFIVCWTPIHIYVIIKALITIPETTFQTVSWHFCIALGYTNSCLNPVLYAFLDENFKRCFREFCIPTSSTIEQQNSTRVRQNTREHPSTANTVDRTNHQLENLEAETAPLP
Experimental for opioid receptors: The homogenate was centrifuged at 5800×g (10,000 rpm; Beckman L8-70 Ultracentrifuge, Rotor: SW 40) for 20 min at 4 degrees. The upper parenchyma layer was then collected and centrifuged under the same conditions. The upper parenchyma layer was again collected, and 1 Volume of 50 mM Tris-buffer pH 7.4 containing [2×] of protease inhibitor was added to the collected parenchyma. The mixture was homogenized using a motorized pestle. The homogenate was centrifuged at 46,000×g for 15 minutes at 4° C. The supernatant was removed and the pellet re-suspended in 1 Volume Tris-buffer pH 7.4 containing [2×] of protease inhibitor. The re-suspended pellet was incubated at 37° C. for 15 minutes with agitation in a 50 ml conical tube to dissociate endogenous opioids from receptors. After incubation, the homogenate was centrifuged at 46,000×g for 15 minutes at 4° C. The supernatant was again removed and the pellet re-suspended in 1 to 1.5 Volume Tris-buffer pH 7.4 containing [1×] of protease inhibitor. The membrane preparation was aliquoted into 1.5 ml tubes in 1 ml samples and stored at −80° C.
Opioid Receptor binding assay used a μ opioid receptor agonist, ^3H-DAMGO, to bind to opioid receptors present in the rat brain membrane preparation. Displacement studies were done with unlabelled ligands, Dalargin, and Dalargin-FC5. Briefly, diluted reagents were prepared using 50 mM Tris-buffer pH7.4, as follows: • i. […] 500 nM FC5-Dal: 16.67 μl 30 μM FC5-Dal and 1 ml Tris-buffer; • v.
Tris-buffer was added to each well, followed by a range of Dalargin concentrations, followed by ^3H-DAMGO. The reaction mixture was left at RT with gentle orbital shaking for 1.5 hr. A scintillation cocktail was then added and radioactive counts were measured using beta scintillation counter.
Specific activity for ^3H-DAMGO was 56.8 Ci/mmol. Percentage specific bound at each concentration of unlabelled competitor was calculated using the formula: % specific bound=Bound/Total bound*100.

Turning to `CN1CC[C@]23c4c5ccc(O)c4O[C@H]2[C@@H](O)C=C[C@H]3[C@H]1C5` [Morphine, morphine], in the series on male Wistar rats (10 mg/kg subcutaneous, positive control), the “Effect on CFA-injected paw withdrawal latency” value was “prompt increase in CFA-injected paw withdrawal latency to values of the contralateral, non-inflamed paw”. In the series with male Wistar rats (10 mg/kg subcutaneous, then slowly diminishing over 3 hours), the “Duration of the increase in paw withdrawal latency” value amounted to 60 min. In addition, the “% of the maximal analgesic effect (observed with 10 mg/kg morphine)” value with male CD-1 mice (3 mg/kg s.c.) is “approximately 50%”. The “% MPE (30 min)” value is given as 56% in the series with male CD-1 mice (3 mg/kg sc, 30 min after injection) and 100% with male CD-1 mice (10 mg/kg sc, 30 min after injection). Also, the Tail flick latency in the series on male CD-1 mice (10 mg/kg morphine s.c., 30 min after injection, cut-off 10 sec) came out at 10 s.
Turning to “Tyr-[D-Ala]-Gly-Phe-Leu-Arg (Y[dA]GFLR) [Dalargin]”, the “% MPE (30 min)” value in the series on male CD-1 mice (setting [2]) is given as 19%. Moreover, the “% MPE (30 min)” value with male CD-1 mice (setting [3]) turned out to be 17%. Also, in the series on male CD-1 mice (icv), the “Time of return to basal levels after intra-cerebroventricular injection” value came out at 60 min and the “Analgesic effect after intra-cerebroventricular injection” value is recorded as “reaching maximal latency of response”. Besides, the “Analgesic effect after intra-carotid injection” value in the series with male CD-1 mice (intra-carotid, 0.86 and 1.72 mg/kg) is “No analgesic effect”.
Take “Dalargin-cysteamide-OH (Y[dA]GFLR; not fully specified (C-terminus)) [Dalargin with a cysteamide-OH residue used for conjugation]”: the “% of maximal effect” value in the series with male Wistar rats (icv, 1.08 μg) is on record as 75%. Further, the “% MPE” value with male Wistar rats (icv, 10.08 μg) is on record as 100%. Further, the “Analgesic effect after intravenous injection” value with male Wistar rats is “did not increase latency of withdrawal of the inflamed paw”. The “Displacement of 3H-DAMGO (receptor binding competition)” value (“Displacement of 3H-DAMGO” for short) with opioid receptors is given as “only slightly less potent than Dalargin”. In the series on male CD-1 mice (icv), the “Time of return to basal levels after intra-cerebroventricular injection” value is 60 min and the “Analgesic effect after intra-cerebroventricular injection” value is “reaching maximal latency of response”.
For “FC5-Dalargin: FC5 sdAb conjugated via Sulfo-SMCC cross-linker to Dalargin-cysteamide”, in series [1], the “Permeability co-efficients (Pe)” value was 4.17 ×10⁻⁶ cm/s. Further, the “% MPE” value in the series on male Wistar rats (i.v. 7 mg/kg, three injections at 0, 1, 2 h, 45 min-1 hour after the third injection) is 100%. Besides, the “Analgesic effect after icv injection” value in the series with male Wistar rats (icv, 74.4 μg) was “complete analgesia”. Also, the “Duration of analgesia after icv injection” value in the series on male Wistar rats (icv, 74.4 μg) was 120 min. Besides, the “Displacement of 3H-DAMGO” value with opioid receptors was “only slightly less potent than Dalargin”. In addition, the “% MPE (30 min)” value was determined as 63% with male CD-1 mice (setting [2]); 63% in the series on male CD-1 mice (0.86 mg/kg of Dalargin, intra-carotid, 30 min after injection, listed as FC5-Dal); 66% in the series on male CD-1 mice (setting [3]); 66% in the series with male CD-1 mice (1.72 mg/kg of Dalargin, intra-carotid, 30 min after injection, listed as FC5-Dal). The “Maximal analgesia, % of maximum effect” value in the series on male CD-1 mice (icv, 30 min after injection) is 40%. In addition, in the series with male CD-1 mice (icv, for up to 90 min), the “Persisting analgesia, % above basal levels” value is 10-15%.

B1: FC5: blood-brain barrier-transmigrating single domain antibody, SEQ ID NO:4, expressed with His5 and c-myc tags (protein)
VHH: EVQLQASGGGLVQAGGSLRLSCAASGFKITHYTMGWFRQAPGKEREFVSRITWGGDNTFYSNSVKGRFTISRDNAKNTVYLQMNSLKPEDTADYYCAAGSTSTATPLRVDYWGKGTQVTVSS
modifications: His5 and c-myc tags; FC5 sdAb
In the case of B1, the “Permeability co-efficients (Pe)” value in series [1] was 3.25 ×10⁻⁶ cm/s. In addition, the “Analgesic effect after intravenous injection” value in the series on male Wistar rats is given as “Neither FC5 alone nor EG2-Dalargin construct induced any analgesic effect”. In addition, the “Displacement of 3H-DAMGO” value with opioid receptors is on record as “did not displace”.
